{"source": "ChEMBL document CHEMBL3797179", "about": "“Probing for improved selectivity with dipeptide-derived inhibitors of dipeptidyl peptidases 8 and 9: the impact of P1-variation” (Medchemcomm, 2016)", "key": {"[1]": {"experiment": "Inhibition of bovine testes DPP9 using Ala-Pro-p-nitroanilide as substrate preincubated for 15 mins followed by substrate addition measured for 10 mins by […]", "set-up": "species or system Bos taurus"}, "[2]": {"molecular_target": "Dipeptidyl peptidase 2 (Homo sapiens, UniProt Q9UHL4)", "experiment": "Inhibition of DPP2 in human seminal plasma using Lys-Ala-p-nitroanilide as substrate preincubated for 15 mins followed by substrate addition measured for 10 mins by […]", "type": "cell-free"}, "[3]": {"molecular_target": "T1, Prolyl endopeptidase FAP (Mus musculus, UniProt P97321)", "T1 sequence (P97321 whole entry)": "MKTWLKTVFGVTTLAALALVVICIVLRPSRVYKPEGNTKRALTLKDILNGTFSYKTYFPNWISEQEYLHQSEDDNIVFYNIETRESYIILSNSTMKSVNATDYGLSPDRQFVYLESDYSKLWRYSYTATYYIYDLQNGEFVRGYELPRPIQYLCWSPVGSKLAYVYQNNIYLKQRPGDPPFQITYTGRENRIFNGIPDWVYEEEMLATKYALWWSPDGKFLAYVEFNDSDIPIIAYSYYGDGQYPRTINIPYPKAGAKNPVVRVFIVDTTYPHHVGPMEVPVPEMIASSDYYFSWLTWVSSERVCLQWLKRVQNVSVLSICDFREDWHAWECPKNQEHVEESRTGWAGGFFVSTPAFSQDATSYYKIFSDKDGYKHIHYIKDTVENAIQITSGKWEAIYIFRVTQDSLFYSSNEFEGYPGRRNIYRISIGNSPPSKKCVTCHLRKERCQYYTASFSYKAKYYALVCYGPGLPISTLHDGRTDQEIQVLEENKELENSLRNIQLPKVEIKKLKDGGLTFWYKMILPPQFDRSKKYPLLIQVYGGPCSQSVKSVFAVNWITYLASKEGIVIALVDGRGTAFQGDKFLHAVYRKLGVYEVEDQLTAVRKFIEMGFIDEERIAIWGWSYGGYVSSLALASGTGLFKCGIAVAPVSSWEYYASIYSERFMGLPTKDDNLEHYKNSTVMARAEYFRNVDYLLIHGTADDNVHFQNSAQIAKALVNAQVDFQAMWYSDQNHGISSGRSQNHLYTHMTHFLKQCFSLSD", "experiment": "Inhibition of BALB/c mouse 5'-His6-tagged 3'-FLAG-tagged FAP fused with ECD expressed in HEK293 cells using Ala-Pro-p-nitroanilide as substrate preincubated for 15 mins followed by substrate addition measured for 10 mins by […]", "type": "cell-based"}, "[4]": {"molecular_target": "Dipeptidyl peptidase 8 (Homo sapiens, UniProt Q6V1X1)", "sequence (Q6V1X1 whole entry)": "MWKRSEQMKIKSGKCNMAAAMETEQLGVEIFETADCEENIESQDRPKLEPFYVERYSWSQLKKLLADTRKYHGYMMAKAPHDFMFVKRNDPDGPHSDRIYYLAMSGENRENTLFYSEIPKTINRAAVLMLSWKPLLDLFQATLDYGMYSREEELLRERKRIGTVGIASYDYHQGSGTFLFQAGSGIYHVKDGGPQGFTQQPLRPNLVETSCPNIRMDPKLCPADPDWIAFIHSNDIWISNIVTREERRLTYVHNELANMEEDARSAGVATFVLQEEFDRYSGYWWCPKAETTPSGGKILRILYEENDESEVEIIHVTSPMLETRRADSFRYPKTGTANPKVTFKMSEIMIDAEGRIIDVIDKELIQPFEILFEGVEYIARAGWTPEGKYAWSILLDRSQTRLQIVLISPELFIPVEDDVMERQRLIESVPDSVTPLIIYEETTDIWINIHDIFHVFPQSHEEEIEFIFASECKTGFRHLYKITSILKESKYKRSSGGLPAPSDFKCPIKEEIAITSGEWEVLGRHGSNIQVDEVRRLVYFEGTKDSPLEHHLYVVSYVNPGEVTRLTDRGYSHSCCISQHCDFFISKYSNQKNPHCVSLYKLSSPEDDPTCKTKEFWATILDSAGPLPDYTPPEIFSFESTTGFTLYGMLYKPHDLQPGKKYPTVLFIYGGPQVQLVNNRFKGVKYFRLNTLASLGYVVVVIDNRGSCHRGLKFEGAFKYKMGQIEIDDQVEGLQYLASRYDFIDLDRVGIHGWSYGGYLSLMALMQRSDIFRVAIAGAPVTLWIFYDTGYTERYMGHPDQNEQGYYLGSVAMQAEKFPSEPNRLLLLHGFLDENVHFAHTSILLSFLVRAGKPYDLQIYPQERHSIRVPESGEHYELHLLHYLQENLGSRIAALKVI", "experiment": "Inhibition of full length human DPP8 expressed in baculovirus infected sf9 cells using Ala-Pro-p-nitroanilide as substrate preincubated for 15 mins followed by substrate addition measured for 10 mins by […]"}, "[5]": {"molecular_target": "Dipeptidyl peptidase 4 (Homo sapiens, UniProt P27487)", "sequence (P27487 whole entry)": "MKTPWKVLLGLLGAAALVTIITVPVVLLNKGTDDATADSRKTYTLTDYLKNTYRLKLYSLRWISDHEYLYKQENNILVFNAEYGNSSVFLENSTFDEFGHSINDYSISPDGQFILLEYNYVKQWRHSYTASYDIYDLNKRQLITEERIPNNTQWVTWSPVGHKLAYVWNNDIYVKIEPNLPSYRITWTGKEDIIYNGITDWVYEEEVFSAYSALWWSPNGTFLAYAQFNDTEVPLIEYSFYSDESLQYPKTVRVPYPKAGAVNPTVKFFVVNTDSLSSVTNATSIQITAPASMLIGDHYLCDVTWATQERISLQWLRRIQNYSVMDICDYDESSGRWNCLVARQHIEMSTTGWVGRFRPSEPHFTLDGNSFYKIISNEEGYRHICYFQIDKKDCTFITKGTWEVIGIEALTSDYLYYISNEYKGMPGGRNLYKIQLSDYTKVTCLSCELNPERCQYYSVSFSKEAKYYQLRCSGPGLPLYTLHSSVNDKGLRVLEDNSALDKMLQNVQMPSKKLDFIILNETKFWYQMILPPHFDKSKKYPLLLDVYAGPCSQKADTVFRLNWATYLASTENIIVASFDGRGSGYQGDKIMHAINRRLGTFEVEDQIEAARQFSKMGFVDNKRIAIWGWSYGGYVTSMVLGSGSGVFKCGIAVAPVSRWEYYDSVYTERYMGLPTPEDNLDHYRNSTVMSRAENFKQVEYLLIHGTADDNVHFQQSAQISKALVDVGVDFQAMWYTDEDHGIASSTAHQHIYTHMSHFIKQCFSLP", "experiment": "Inhibition of DPP4 in human seminal plasma using Gly-Pro-p-nitroanilide as substrate preincubated for 15 mins followed by substrate addition measured for 10 mins by […]", "type": "cell-free"}}, "note": "pIC50: −log10 of the molar value.", "data": [{"smiles": "C=C1C[C@@H](C#N)N(C(=O)[C@@H](N)CC(=O)N2CCN(C(c3ccc(F)cc3)c3ccc(F)cc3)CC2)C1", "values": [{"measurement": "pIC50", "setting": "[1]", "result": 7.08}]}, {"smiles": "CC[C@@H](C)[C@H](N)C(=O)N1CCC(C)C1", "note": "(stereo partly specified)", "values": [{"measurement": "pIC50", "setting": "[1]", "result": 5.33}]}, {"smiles": "CC[C@@H](C)[C@H](N)C(=O)N1Cc2conc2C1", "values": [{"measurement": "pIC50", "setting": "[1]", "result": 4.38}]}, {"smiles": "Cc1nc2c(s1)CN(C(=O)[C@@H](N)CC(=O)N1CCN(C(c3ccc(F)cc3)c3ccc(F)cc3)CC1)C2", "values": [{"measurement": "pIC50", "setting": "[2]", "result": "< 4.00"}, {"measurement": "pIC50", "setting": "[1]", "result": 4.52}]}, {"smiles": "N#C[C@@H]1C[C@H](N=[N+]=[N-])CN1C(=O)[C@@H](N)CC(=O)N1CCN(C(c2ccc(F)cc2)c2ccc(F)cc2)CC1", "values": [{"measurement": "pIC50", "setting": "[2]", "result": "< 4.60"}, {"measurement": "pIC50", "setting": "[1]", "result": 6.64}]}, {"smiles": "CC1CCN(C(=O)[C@@H](N)CC(=O)N2CCN(C(c3ccc(F)cc3)c3ccc(F)cc3)CC2)C1", "note": "(stereo partly specified)", "values": [{"measurement": "pIC50", "setting": "[1]", "result": 6.77}, {"measurement": "pIC50", "setting": "[3]", "result": "< 4.00"}]}, {"smiles": "CC[C@@H](C)[C@H](N)C(=O)N1Cc2cn[nH]c2C1", "values": [{"measurement": "pIC50", "setting": "[2]", "result": "< 4.00"}, {"measurement": "pIC50", "setting": "[4]", "result": "< 4.00"}, {"measurement": "pIC50", "setting": "[1]", "result": "< 4.00"}]}, {"smiles": "C[C@H]1C[C@@H](C#N)N(C(=O)[C@@H](N)CC(=O)N2CCN(C(c3ccc(F)cc3)c3ccc(F)cc3)CC2)C1", "values": [{"measurement": "pIC50", "setting": "[1]", "result": 7.92}]}, {"smiles": "C=C1CCN(C(=O)[C@@H](N)CC(=O)N2CCN(C(c3ccc(F)cc3)c3ccc(F)cc3)CC2)C1", "values": [{"measurement": "pIC50", "setting": "[2]", "result": "< 4.00"}, {"measurement": "pIC50", "setting": "[1]", "result": 6.39}]}, {"smiles": "CCC1CCN(C(=O)[C@@H](N)CC(=O)N2CCN(C(c3ccc(F)cc3)c3ccc(F)cc3)CC2)C1", "note": "(stereo partly specified)", "values": [{"measurement": "pIC50", "setting": "[1]", "result": 6.44}, {"measurement": "pIC50", "setting": "[3]", "result": "< 4.00"}]}, {"smiles": "C=C1CCN(C(=O)[C@@H](N)[C@H](C)CC)C1", "values": [{"measurement": "pIC50", "setting": "[2]", "result": "< 4.00"}, {"measurement": "pIC50", "setting": "[5]", "result": "< 4.30"}, {"measurement": "pIC50", "setting": "[1]", "result": 4.80}]}, {"smiles": "N[C@@H](CC(=O)N1CCN(C(c2ccc(F)cc2)c2ccc(F)cc2)CC1)C(=O)N1Cc2conc2C1", "values": [{"measurement": "pIC50", "setting": "[1]", "result": 5.62}]}, {"smiles": "CC[C@@H](C)[C@H](N)C(=O)N1Cc2ccccc2C1", "values": [{"measurement": "pIC50", "setting": "[3]", "result": "< 4.00"}]}, {"smiles": "CC[C@@H](C)[C@H](N)C(=O)N1Cc2nc(C)sc2C1", "values": [{"measurement": "pIC50", "setting": "[2]", "result": "< 4.00"}, {"measurement": "pIC50", "setting": "[4]", "result": "< 4.60"}, {"measurement": "pIC50", "setting": "[1]", "result": "< 4.00"}]}, {"smiles": "N[C@@H](CC(=O)N1CCN(C(c2ccc(F)cc2)c2ccc(F)cc2)CC1)C(=O)N1CCC(C(F)(F)F)C1", "note": "(stereo partly specified)", "values": [{"measurement": "pIC50", "setting": "[1]", "result": 5.46}]}, {"smiles": "N[C@@H](CC(=O)N1CCN(C(c2ccc(F)cc2)c2ccc(F)cc2)CC1)C(=O)N1Cc2ccccc2C1", "values": [{"measurement": "pIC50", "setting": "[1]", "result": 7.08}, {"measurement": "pIC50", "setting": "[3]", "result": "< 4.00"}]}, {"smiles": "CC[C@@H](C)[C@H](N)C(=O)N1C[C@@H](N=[N+]=[N-])C[C@H]1C#N", "values": [{"measurement": "pIC50", "setting": "[3]", "result": "< 4.00"}]}, {"smiles": "CCC1CCN(C(=O)[C@@H](N)[C@H](C)CC)C1", "note": "(stereo partly specified)", "values": [{"measurement": "pIC50", "setting": "[1]", "result": 5.24}]}, {"smiles": "N#C[C@@H]1[C@@H]2C[C@@H]2CN1C(=O)[C@@H](N)CC(=O)N1CCN(C(c2ccc(F)cc2)c2ccc(F)cc2)CC1", "values": [{"measurement": "pIC50", "setting": "[1]", "result": 7.66}]}, {"smiles": "CC[C@@H](C)[C@H](N)C(=O)N1C[C@H]2C[C@H]2[C@H]1C#N", "values": [{"measurement": "pIC50", "setting": "[2]", "result": "< 4.00"}, {"measurement": "pIC50", "setting": "[1]", "result": 5.55}]}, {"smiles": "N[C@@H](CC(=O)N1CCN(C(c2ccc(F)cc2)c2ccc(F)cc2)CC1)C(=O)N1Cc2cn[nH]c2C1", "values": [{"measurement": "pIC50", "setting": "[2]", "result": "< 4.00"}, {"measurement": "pIC50", "setting": "[4]", "result": "< 4.00"}, {"measurement": "pIC50", "setting": "[1]", "result": "< 4.60"}]}]}
